Measured values published in ChEMBL document CHEMBL1135097, “New readily accessible peroxides with high anti-malarial potency” (Bioorg Med Chem Lett, 2002).

What was measured:
[1] = test system: Plasmodium falciparum; test: Antimalarial activity against Plasmodium falciparum; type: functional, organism-based
[2] = (§1) Selective toxicity index between parasite and cells of host-animals, human epidermoid carcinoma KB 3-1; type: organism-based; conditions: KB 3-1 human epidermoid carcinoma cells
[3] = test system: KB 3-1; test: Compound was tested for cytotoxicity against human epidermoid carcinoma KB 3-1; type: functional, cell-based
[4] = species: Homo sapiens; test: as §1; type: organism-based

Compound | IC50 ([1]; Plasmodium falciparum) | selectivity ratio [2] | IC50 ([3]; Homo sapiens, KB 3-1) | Ratio [4] | IC50 ([3]; kb 3-1) | IC50 [1]
CCCCC[C@]1(OC)CC[C@@H](CC(=O)OC)OO1 | 150 nM | 350 | 53000 nM | – | – | –
CC/C=C/C=C/CC[C@]1(OC)CC[C@H]([C@@H](C)C(=O)OC)OO1 | 120 nM | 230 | 28000 nM | – | – | –
CC/C=C/C=C/CC[C@]1(OC)CC[C@@H](C(C)C(=O)OC)OO1 (single isomer, unassigned) | 150 nM | 140 | 21000 nM | – | – | –
CCCCCC1(OC)CCC(CC(=O)OC)OO1 (single isomer, unassigned; (-)) | – | – | – | 370 | 82000 nM | –
COC(=O)CC1CCC(C)(OC)OO1 (centres undefined) | > 2400 nM | – | > 490 nM | – | – | –
CCCCCCCCC[C@]1(OC)CC[C@H](CC(=O)OC)OO1 (relative stereo) | 260 nM | 8 | 2200 nM | – | – | –
CCCCC[C@]1(OC)CC[C@H](CC(=O)OC)OO1 | 150 nM | 150 | 23000 nM | – | – | –
CCCCCC1(OC)CCC(CC(=O)OC)OO1 (stereo in doubt; 5) | 120 nM | 360 | 43000 nM | – | – | –
CCCCCC1(OC)CCC(CC(=O)OC)OO1 (single isomer, unassigned; (+)) | – | – | – | 350 | 77000 nM | 220 nM
CCCCCCCCCC1(OC)CCC(CC(=O)OC)OO1 (centres undefined) | 140 nM | 31 | 4400 nM | – | – | –
CCCCCCCCCCCCCCCC[C@@]1(OC)C=C[C@@H](CC(=O)OC)OO1 [CHONDRILLIN] | > 240 nM | < 2.6 | 630 nM | – | – | –
CCCCCCCCC[C@]1(OC)CC[C@@H](CC(=O)OC)OO1 | 170 nM | 26 | 4400 nM | – | – | –
